One test deals with RWPE-1 cells. The test is described as follows: CCK-8 assay, viability of MitoQ-treated RWPE-1 cells. Format: cell-based, human. The settings on record: without DHT, 24 h, FIG. 1B. Here is the method:
The normal human prostate epithelial cell line, RWPE-1, was obtained from the American Type Culture Collection (Manassas, VA, USA).
(§1) The RWPE-1 cells were cultured in a keratinocyte serum-free medium supplemented with 0.05 mg/mL bovine pituitary extract, 5 ng/mL human recombinant epidermal growth factor, and antibiotic-antimycotic solution (Gibco®, Big Cabin, OK, USA). The cells were cultured in a humidified environment at 37° C. and 5% CO2. The cells were cultured in a serum-free medium to block the effects of autocrine androgens.
(§2) The cell viability and proliferation were measured using the Cell Counting Kit-8 (CCK-8, Dojindo Molecular Technologies, Inc., D.C., USA). The RWPE-1 cells were plated to 96-well plates (1×10^5 cells/well) and incubated for 24 h. […] After the treatment, the CCK-8 solution was added to each well and incubated for four hours. The number of viable cells was monitored by measuring absorbance at 450 nm using an Epoch microplate reader (Biotek, Winooski, VT, USA).

For test [1], the system named is DHT-stimulated RWPE-1 cells. As to the kind of experiment: CCK-8 assay, RWPE-1 cell proliferation under DHT stimulation. The test is classed as cell-based, human. To be noted: 10 nM DHT, 24 h, FIG. 1C. Here is the method:
as §1, §2

In test [2] the test system is siRNA-transfected RWPE-1 cells. As to the kind of experiment: siRNA transfection (NLRP3 or AR knockdown) with qRT-PCR in RWPE-1 cells. Format: cell-based, human. The settings on record: DHT stimulation, with or without 100 μM MitoQ. Here is the method: (§3) Total RNA was isolated using Easy-Blue® reagent (iNtRON Biotechnology, Inc., Gyeonggi, Korea) and transcribed into complementary DNA (cDNA) according to the manufacturer's instructions. Oligonucleotide primers (Table 1) were purchased from Bioneer Corporation (Daejeon, Korea). qRT-PCR was performed according to the known method.
The RWPE-1 cells were transfected with siRNA (Bioneer Corporation) or pmaxGFP™ vector using a 4D-Nucleofector™ system (Lonza, Basel, Switzerland). The following siRNA nucleotide sequences were used: NLRP3 siRNA, […]=tt(1-AS) (SEQ ID NO.: 39) and […]=tt (1-AA) (SEQ ID NO.: 40) and AR siRNA, […]=tt (6-AS) (forward) (SEQ ID NO.: 41) and […]=tt (6-AA) (reverse) (SEQ ID NO.: 42). After four hours of incubation, the cells were treated in the presence or absence of MitoQ 100 μM. The effect of NLRP3 or AR knockdown was detected using qRT-PCR.

For the next test, the target named is T1, AR (PDB ID: 2AMA) (Homo sapiens, UniProt P10275).
T1 sequence (P10275 664-920 limits assumed): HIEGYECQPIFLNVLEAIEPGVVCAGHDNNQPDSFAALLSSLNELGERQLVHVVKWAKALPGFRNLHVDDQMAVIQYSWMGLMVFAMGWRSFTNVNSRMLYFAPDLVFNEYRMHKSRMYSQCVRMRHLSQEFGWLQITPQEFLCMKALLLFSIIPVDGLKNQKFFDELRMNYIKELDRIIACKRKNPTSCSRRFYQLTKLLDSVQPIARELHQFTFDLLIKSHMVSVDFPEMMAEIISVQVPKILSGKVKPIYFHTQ
The test is described as follows: Docking simulation (AutoDock Vina v1.1.2) on AR.

Test [3] deals with testosterone-induced BPH rat model. As to the kind of experiment: PCNA IHC and qRT-PCR in prostate of rats with BPH. The test is classed as in vivo. Here is the method: as §3
(§4) Six-week-old male Sprague-Dawley rats (n=40; 200 +20 g) were purchased from Daehan Biolink Co. (Daejeon, Korea). The animals were randomly allocated, four rats in each cage, and housed in accordance with the guidelines for the care and use of laboratory animals adopted and promulgated by Sangji University according to the requirements established by the National Institutes of Health. All experimental protocols were approved by the Institutional Animal Care and Use Committee (IACUC) of Sangji University before the initiation of the study (IACUC Animal Approval Protocol #2018-18). The rats were acclimatized to laboratory conditions for one week before initiating the experiment.
The rats in the control group were incised and sutured without removing the testicles following anesthesia using zoletil 50 (intraperitoneal injection, 10 mg/kg). […] Twenty-four hours after the final administration, all rats were euthanized following anesthesia with zoletil 50 (i.p., 20 mg/kg). […]

Test [4] has the same test system. The test is described as follows: Serum DHT and testosterone measurement (ELISA) in rats with BPH. The test is classed as in vivo.
Excerpt: as §4
The rats in the control group were incised and sutured without removing the testicles following anesthesia using zoletil 50 (intraperitoneal injection, 10 mg/kg). […] Twenty-four hours after the final administration, all rats were euthanized following anesthesia with zoletil 50 (i.p., 20 mg/kg). Blood samples were drawn through cardiac puncture, and serum was obtained via centrifugation and stored at −80° C.
The serum DHT and testosterone levels were quantified using commercial ELISA kits (Cusabio, TX, USA). The assays were performed according to the manufacturer's instructions.

Some results are limits rather than exact numbers.

Consider mitoquinone, for which the “concentration of MitoQ suppressing RWPE-1 cell proliferation (viability)” value with RWPE-1 cells is ≥ 25 μM. Besides, the “concentration of MitoQ significantly suppressing DHT-stimulated RWPE-1 cell proliferation” value in test [1] is ≥ 6.25 μM. The “AR level (mRNA) in NLRP3 siRNA-transfected cells” value in test [2] (FIG. 3D) was “notably downregulated”. Besides, the “NLRP3 level (mRNA) in AR siRNA-transfected cells” value in test [2] (FIG. 3E) is on record as “significantly suppressed”. Further, the “difference between the affinity values of DHT and MitoQ for AR” value at AR (PDB ID: 2AMA) is listed as ~1 kcal/mol. In addition, the “cellular proliferation inhibiting effect compared to Saw” value in test [3] (MitoQ 25 mg/kg/day vs Saw 100 mg/kg/day) was “superior”. Also, in test [3] (MitoQ 5, 25 mg/kg/day, Saw 100 mg/kg/day p.o., FIGS. 4C, 4E, 4F), the “overexpression of PCNA protein and mRNA” value is listed as “clearly suppressed”. The “serum DHT overproduction” value in test [4] (FIG. 7A) was “significantly suppressed”. Moreover, the “circulating (serum) testosterone level” value in test [4] (MitoQ 25 mg/kg, Saw 100 mg/kg/day, FIG. 7E) is listed as “significantly reduced”.

The values above are taken from patent US20250205253A1, “PHARMACEUTICAL COMPOSITION FOR PREVENTING OR TREATING BENIGN PROSTATIC HYPERPLASIA” (University-Industry Cooperation Group of Kyung Hee …, priority 2023, published 2025).
